One assay has as its system IL-6 mRNA. The conditions noted are these: fractured mice, tissues collected 72 hours after fracture; FIG. 3b. As to the method:
(§1) All mice were anaesthetized with 2-3% sevoflurane. Adequate anesthesia was ascertained by an absent pedal withdrawal reflex after hard pinching of the toe. Closed tibial fracture was performed as previously described (Minville et al 2008). Briefly, after antiseptic preparation of the right paw with povidone-iodine, a unilateral closed fracture was produced in the right tibia using a specially designed fracture apparatus (blunt guillotine). For the intramedullary pinning using a sterile technique, a hole was made above the tibial tuberosity per-cutaneously using a 27 G needle (BD Microlance—27G ¾L 19 mm). Then, the needle was directed straight into the medullary canal. By rotating the needle, the canal was reamed to 5 mm up to the ankle joint. The end of the needle was cut as short as possible so that the skin could roll over and covers it. No suture was performed. The mouse was then placed with the leg on the anvil in order to line up the blunt guillotine with the proximal third of the tibia. A 300 g weight was decreased from a height of 9 to 10 cm, fracturing the tibia shaft.
(§2) Apelin administration (ip, 0.5 umol/kg, Bachem) has been performed 1 hour before fracture and daily during the 15 consecutive days.

Another assay has as its system TNFa mRNA. The conditions noted are these: fractured mice, tissues collected 72 hours after fracture; FIG. 3a. The method, then:
as §1, §2

The test system of assay [1] is fractured mice. As to the method:
as §1, §2

In assay [2] the test system is fractured mice. Conditions: 20 month old mice, i.p. apelin 0.5 nmol/kg before and during 3 days after the fracture, tested after 3 days; FIG. 4.
Description: FIG. 4: Percentage of freezing in aged mice. Twenty month old male C57B16/j mice were fractured with (fracture apelin) or without (fracture PBS) an i.p treatment of apelin (0.5 nmol/kg) before and during 3 days after the fracture. After 3 days, animal hippocampal memory was tested by fear conditioning test. N=6 to 10, *p<0.05 compared to control.
To test the long-term memory and learning abilities, a fitness test to fear (Fear Conditioning Test) was used.
During the learning session, this test combines a painful and anxiety-producing event (2 short electrical discharges 0.3 mA 2 s on the legs) in an environmental context (floor cage with metal grills, washed several times a day with an alcoholic solution), visual (compound walls of black and white stripes, and white light patterns on the walls of the room) and sound (each discharge is preceded by a 80 dB sound 20 seconds). The learning phase lasted 4 minutes 25 seconds.
In the context of test sessions, conducted in the 3rd postoperative day, the animal was reintroduced in the same cage for 4 minutes. The context was the same but without sound stimulation or pain stimulus. […] Operator who ignored the treatment received by each animal evaluated the freezing time of each animal. […]

These results are taken from patent publication US11896649B2, “Methods and pharmaceutical compositions for the treatment of post-operative cognitive dysfunction” (INSERM (INSTITUT NATIONAL DE LA SANTE ET DE LA RECHERCHE …, priority 2016, dated 2024).

As to apelin, the “Hippocampus IL-6 mRNA expression” value in the assay with IL-6 mRNA was “avoid IL-6 increase”. Also, in the assay with TNFa mRNA, the “Hematoma TNFa mRNA expression” value is listed as “strong decreased”. For the same substance, the “Pain and nociception measured by Von Frey technique” value in the assay with fractured mice [1] (apelin ip 0.5 umol/kg 1 hour before fracture and daily, tested at day 1, 5 and 15 after fracture, FIG. 1a) was “significantly decreased”. In addition, in the assay on fractured mice [1] (apelin ip 0.5 umol/kg 1 hour before fracture and daily, tested at day 1, 5 and 15 after fracture, FIG. 1b), the “Pain and nociception measured by Hargreave's technique” value is given as “significantly decreased”. In the assay with fractured mice [1] (non-operated mice treated by apelin, FIG. 2), the “Freezing rate in non-operated mice” value is given as “did not display change”. In the assay on fractured mice [1] (operated mice, daily injection of apelin, day 3 after fracture, FIG. 2), the “Freezing rate in operated mice, compared to operated mice receiving saline injections” value is on record as “increased”. The “Hippocampal memory (percentage of freezing) in aged mice after fracture” value in the assay with fractured mice [2] is recorded as “do not exhibit hippocampal memory failure”.
